# Test results published in patent US20250177372A1, “LIQUID FORMULATIONS OF INDACATEROL AND GLYCOPYRRONIUM” (AeroRx Therapeutics, Inc., priority 2022, published 2025).
# Where a name gives a salt, the structure may show the parent alone.
# Legend:
# Type in all cases: physicochemical
# [1] = Aqueous solubility of indacaterol and indacaterol maleate in water (orbital shaker, UV-Vis); conditions: for pH after dissolution / Solubility: water, initial pH 7.1; for Solubility: shaken 12 hours, UV-Vis
# Procedure: Solubility studies of indacaterol and indacaterol maleate were performed using an orbital shaker method. Excess indacaterol was placed in a glass vial with water. The initial pH of the water was 7.1. Samples were shaken for 12 hours to ensure equilibrium was reached. After the 12 hour period, the vial was removed from the shaker and allowed to settle for 30 minutes. Then, the sample was filtered using a 0.2 μM polyvinylidene fluoride (PVDF) syringe filter; the initial 0.5 mL of filtrate was discarded. The pH was then measured and the concentration of the indacaterol was evaluated by UV-Vis.
# [2] = Forced degradation study of indacaterol (RP-HPLC impurities); conditions: for Total Impurities* (%): includes 2% process-related impurity
# Procedure: A degraded sample panel was prepared to identify indacaterol degradation pathways and products. Stress conditions are outlined in Table 1.
# One of 6N HCl, 6N NaOH, or 30% H2O2 (aqueous) were added to a suitable volume of 100 μg/mL indacaterol and diluted with water:methanol (50:50, v:v) to achieve a final indacaterol concentration of 10 μg/mL. Samples were stored at ambient temperature. At specified time points, acidic and basic hydrolysis (1 N HCl and 1 N NaOH, respectively) samples were neutralized (H2O2 samples were not quenched) and reversed-phase high performance liquid chromatography (RP-HPLC) was used to quantitate indacaterol impurities. All samples were diluted to 5 μg/mL prior to RP-HPLC analysis. Method parameters are outlined in Table 2.
# Total impurities (process-related and product-related) of the indacaterol forced degradation study samples are presented in Table 3. Forced degradation impurity peaks were identified based on their retention time relative (RRT) to the indacaterol peak. Impurity peaks already present in the indacaterol (control group at T0; total peak area approximately 2%) were considered process-related, while additional peaks formed after the degradation were considered product-related.
# [3] = Aqueous solubility of indacaterol with varying pH in citrate buffer (orbital shaker, UV-Vis); conditions: aqueous citrate buffer 5 mM
# Procedure: Solubility studies of indacaterol in solutions of varying pH were performed using an orbital shaker method. Excess indacaterol was placed in a glass vial with an aqueous citrate buffer (5 mM; prepared from citric acid and NaOH). Samples were shaken for 12 to 24 hours to ensure equilibrium was reached before checking and adjusting the pH (using 1 M HCl and NaOH) and placing samples back into the orbital shaker for an additional 12 hours. This process was repeated up to two times or until the desired pH was obtained. After the desired pH was reached, the vial was removed from the shaker and allowed to settle for 30 minutes. Then, the sample was filtered using a 0.2 μM PVDF syringe filter; the initial 0.5 mL of filtrate was discarded. The pH was then measured and the concentration of the indacaterol was evaluated by UV-Vis.
# [4] = Acidic Hydrolysis (1M HCl), 15 h, ambient temperature
# [5] = Basic Hydrolysis (1M NaOH), 15 h, ambient temperature
compound,measurement,setting,value
"CCc1cc2c(cc1CC)CC(NC[C@H](O)c1ccc(O)c3[nH]c(=O)ccc13)C2 [Indacaterol maleate, indacaterol maleate]",pH after dissolution,[1],3.30
same,Solubility,[1],230 µg/mL
"CCc1cc2c(cc1CC)CC(NC[C@H](O)c1ccc(O)c3[nH]c(=O)ccc13)C2 [Indacaterol, (R)-5-[2-(5,6-Diethylindan-2-ylamino)-1-hydroxyethyl]-8hydroxy-1H-quinolin-2-one]",Total Peak Area (%),"[2]; Acidic Hydrolysis (1M HCl), 15 h",99.79%
same,Indacaterol (%),[2]; [4],92.54%
same,Total Impurities* (%),[2]; [4],7.25%
same,"Indacaterol (%), Change in % peak","[2]; Acidic Hydrolysis (1M HCl), 15 h vs T0",−3.27%
same,Indacaterol (%),"[2]; Acidic Hydrolysis (1M HCl), T0",95.81%
same,Total Peak Area (%),"[2]; Acidic Hydrolysis (1M HCl), T0",99.82%
same,Total Impurities* (%),"[2]; Acidic Hydrolysis (1M HCl), T0",4.01%
same,Total Peak Area (%),"[2]; Basic Hydrolysis (1M NaOH), 15 h",99.75%
same,Indacaterol (%),[2]; [5],92.06%
same,Total Impurities* (%),[2]; [5],7.69%
same,"Indacaterol (%), Change in % peak","[2]; Basic Hydrolysis (1M NaOH), 15 h vs T0",−3.76%
same,Indacaterol (%),"[2]; Basic Hydrolysis (1M NaOH), T0",95.82%
same,Total Peak Area (%),"[2]; Basic Hydrolysis (1M NaOH), T0",99.81%
same,Total Impurities* (%),"[2]; Basic Hydrolysis (1M NaOH), T0",3.99%
same,Total Peak Area (%),"[2]; Control, T0",99.85%
same,Indacaterol (%),"[2]; Control, T0, 10 μg/mL in MeOH:H2O (50:50), ambient temperature",98.04%
same,Total Impurities* (%),"[2]; Control, T0",1.81%
same,Indacaterol (%),"[2]; Oxidation (1.2% H2O2), 7 h",97.03%
same,Total Peak Area (%),"[2]; Oxidation (1.2% H2O2), 7 h",99.89%
same,Total Impurities* (%),"[2]; Oxidation (1.2% H2O2), 7 h",2.77%
same,Indacaterol (%),"[2]; Oxidation (1.2% H2O2), 29 h",90.76%
same,Total Peak Area (%),"[2]; Oxidation (1.2% H2O2), 29 h",99.59%
same,Total Impurities* (%),"[2]; Oxidation (1.2% H2O2), 29 h",8.83%
same,Total Impurities* (%),"[2]; Oxidation (1.2% H2O2), 29 h, listed as indacaterol",approximately 9%
same,"Indacaterol (%), Change in % peak","[2]; Oxidation (1.2% H2O2), 29 h vs 7 h",−6.27%
same,degradation of indacaterol samples in aqueous solutions over time (FIG. 1),"[2]; forced degradation experiment, staggered chromatogram",minimal degradation
same,solubility in water,[1]; water at pH 7.1,insoluble
same,pH after dissolution,[1],6.20
same,Solubility,[1],< 1 µg/mL
same,dependence of indacaterol solubility on pH,[3],increase with decreasing pH
